Results published in paper PMC5078040 (Oncotarget, 2016).

Key:
[1] = target: T1, ABL2 (Homo sapiens, UniProt P42684); test: KinomeScan; type: binding; details: 1uM
T1 construct: purchased DiscoveRx KINOMEscan

[2] = target: T2, AMPK-alpha1 (Homo sapiens, UniProt Q13131); test: KinomeScan; type: binding; details: 1uM
T2 construct: purchased DiscoveRx KINOMEscan

[3] = target: T3, AURKA (Homo sapiens, UniProt O14965); test: KinomeScan; type: binding; details: 1uM
T3 construct: purchased DiscoveRx KINOMEscan

[4] = target: T4, CDC2L2 (Homo sapiens, UniProt Q9UQ88); test: KinomeScan; type: binding; details: 1uM
T4 construct: purchased DiscoveRx KINOMEscan

[5] = target: T5, CDK3 (Homo sapiens, UniProt Q00526); test: KinomeScan; type: binding; details: 1uM
T5 construct: purchased DiscoveRx KINOMEscan

[6] = target: T6, CDKL3 (Homo sapiens, UniProt Q8IVW4); test: KinomeScan; type: binding; details: 1uM
T6 construct: purchased DiscoveRx KINOMEscan
T6 sequence (Q8IVW4 whole entry): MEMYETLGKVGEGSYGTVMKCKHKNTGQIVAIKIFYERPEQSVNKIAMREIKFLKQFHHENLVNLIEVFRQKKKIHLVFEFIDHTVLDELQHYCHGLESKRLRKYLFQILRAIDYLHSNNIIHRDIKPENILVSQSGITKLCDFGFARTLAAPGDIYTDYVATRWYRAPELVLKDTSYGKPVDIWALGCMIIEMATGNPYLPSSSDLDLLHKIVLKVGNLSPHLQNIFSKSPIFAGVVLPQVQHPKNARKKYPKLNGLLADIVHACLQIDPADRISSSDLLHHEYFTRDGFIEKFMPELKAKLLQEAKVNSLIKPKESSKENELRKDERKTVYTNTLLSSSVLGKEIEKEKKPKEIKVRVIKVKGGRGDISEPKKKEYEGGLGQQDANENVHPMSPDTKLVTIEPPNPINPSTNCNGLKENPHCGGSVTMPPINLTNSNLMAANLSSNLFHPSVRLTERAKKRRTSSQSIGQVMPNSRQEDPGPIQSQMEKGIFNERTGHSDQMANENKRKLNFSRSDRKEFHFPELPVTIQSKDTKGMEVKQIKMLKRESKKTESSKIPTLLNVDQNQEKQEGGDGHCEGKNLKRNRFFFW

[7] = target: T7, DRAK2 (Homo sapiens, UniProt O94768); test: KinomeScan; type: binding; details: 1uM
T7 construct: purchased DiscoveRx KINOMEscan

[8] = target: T8, EGFR(L858R) (Homo sapiens, UniProt P00533, L858R); test: KinomeScan; type: binding; details: 1uM
T8 construct: purchased DiscoveRx KINOMEscan

[9] = target: T9, EPHB2 (Homo sapiens, UniProt P29323); test: KinomeScan; type: binding; details: 1uM
T9 construct: purchased DiscoveRx KINOMEscan

[10] = target: T10, EPHB3 (Homo sapiens, UniProt P54753); test: KinomeScan; type: binding; details: 1uM
T10 construct: purchased DiscoveRx KINOMEscan
T10 sequence (P54753 34-998): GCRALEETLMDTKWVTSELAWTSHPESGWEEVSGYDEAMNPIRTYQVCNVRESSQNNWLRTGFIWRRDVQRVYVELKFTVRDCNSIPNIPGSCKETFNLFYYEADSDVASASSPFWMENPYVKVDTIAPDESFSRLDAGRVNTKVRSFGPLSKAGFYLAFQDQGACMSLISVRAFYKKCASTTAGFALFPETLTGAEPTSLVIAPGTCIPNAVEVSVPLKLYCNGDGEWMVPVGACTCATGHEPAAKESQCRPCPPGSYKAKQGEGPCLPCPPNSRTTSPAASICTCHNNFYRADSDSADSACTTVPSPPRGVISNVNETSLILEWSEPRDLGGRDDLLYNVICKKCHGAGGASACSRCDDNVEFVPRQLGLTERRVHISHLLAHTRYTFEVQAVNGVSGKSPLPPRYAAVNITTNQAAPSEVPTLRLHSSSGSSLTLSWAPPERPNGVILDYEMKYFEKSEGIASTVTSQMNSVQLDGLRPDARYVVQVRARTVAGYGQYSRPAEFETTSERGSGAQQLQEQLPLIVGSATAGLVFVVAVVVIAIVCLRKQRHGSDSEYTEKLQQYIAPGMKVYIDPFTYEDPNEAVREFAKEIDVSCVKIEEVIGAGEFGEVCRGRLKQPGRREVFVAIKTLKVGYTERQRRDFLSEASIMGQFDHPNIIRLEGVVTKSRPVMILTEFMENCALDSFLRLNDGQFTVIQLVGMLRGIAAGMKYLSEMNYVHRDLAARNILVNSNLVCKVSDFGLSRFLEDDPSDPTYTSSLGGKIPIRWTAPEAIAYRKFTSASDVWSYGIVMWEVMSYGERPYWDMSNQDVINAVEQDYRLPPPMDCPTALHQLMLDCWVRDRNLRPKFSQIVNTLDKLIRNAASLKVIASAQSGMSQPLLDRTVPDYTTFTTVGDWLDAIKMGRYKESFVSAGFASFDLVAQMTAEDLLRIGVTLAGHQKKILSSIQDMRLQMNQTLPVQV

[11] = target: T11, FGFR2 (Homo sapiens, UniProt P21802); test: KinomeScan; type: binding; details: 1uM
T11 construct: purchased DiscoveRx KINOMEscan
T11 sequence (P21802 22-821): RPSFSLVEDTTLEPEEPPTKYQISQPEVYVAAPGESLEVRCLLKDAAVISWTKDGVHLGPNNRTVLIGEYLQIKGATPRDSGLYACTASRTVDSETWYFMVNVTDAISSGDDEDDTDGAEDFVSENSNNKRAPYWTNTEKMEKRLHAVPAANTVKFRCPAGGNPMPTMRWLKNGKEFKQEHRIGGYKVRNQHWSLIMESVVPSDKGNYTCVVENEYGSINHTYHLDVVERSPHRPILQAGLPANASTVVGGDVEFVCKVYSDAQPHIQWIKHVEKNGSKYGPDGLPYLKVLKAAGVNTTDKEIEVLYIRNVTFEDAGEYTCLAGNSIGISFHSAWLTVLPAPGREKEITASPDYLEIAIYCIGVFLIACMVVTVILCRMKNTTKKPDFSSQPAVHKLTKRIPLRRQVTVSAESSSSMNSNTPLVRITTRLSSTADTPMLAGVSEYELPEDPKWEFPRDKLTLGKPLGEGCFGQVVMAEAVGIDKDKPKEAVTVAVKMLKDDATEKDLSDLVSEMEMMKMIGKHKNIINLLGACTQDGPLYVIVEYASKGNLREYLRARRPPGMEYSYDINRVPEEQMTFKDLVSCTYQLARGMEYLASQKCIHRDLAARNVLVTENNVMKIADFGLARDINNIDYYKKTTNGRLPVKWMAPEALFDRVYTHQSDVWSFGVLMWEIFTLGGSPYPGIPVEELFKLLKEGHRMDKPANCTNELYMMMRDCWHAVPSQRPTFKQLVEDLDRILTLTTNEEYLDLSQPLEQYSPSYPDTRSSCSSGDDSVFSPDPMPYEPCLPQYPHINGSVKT

[12] = target: T12, GRK1 (Homo sapiens, UniProt Q15835); test: KinomeScan; type: binding; details: 1uM
T12 construct: purchased DiscoveRx KINOMEscan

[13] = target: T13, GSK3B (Homo sapiens, UniProt P49841); test: KinomeScan; type: binding; details: 1uM
T13 construct: purchased DiscoveRx KINOMEscan

[14] = target: T14, ICK (Homo sapiens, UniProt Q9UPZ9); test: KinomeScan; type: binding; details: 1uM
T14 construct: purchased DiscoveRx KINOMEscan

[15] = target: T15, JAK1(JH1domain-catalytic) (Homo sapiens, UniProt P23458); test: KinomeScan; type: binding; details: 1uM
T15 construct: JAK1(JH1domain-catalytic); purchased DiscoveRx KINOMEscan

[16] = target: T16, JAK2(JH1domain-catalytic) (Homo sapiens, UniProt O60674); test: KinomeScan; type: binding; details: 1uM
T16 construct: JAK2(JH1domain-catalytic); purchased DiscoveRx KINOMEscan
T16 sequence (O60674 849-1132 limits assumed): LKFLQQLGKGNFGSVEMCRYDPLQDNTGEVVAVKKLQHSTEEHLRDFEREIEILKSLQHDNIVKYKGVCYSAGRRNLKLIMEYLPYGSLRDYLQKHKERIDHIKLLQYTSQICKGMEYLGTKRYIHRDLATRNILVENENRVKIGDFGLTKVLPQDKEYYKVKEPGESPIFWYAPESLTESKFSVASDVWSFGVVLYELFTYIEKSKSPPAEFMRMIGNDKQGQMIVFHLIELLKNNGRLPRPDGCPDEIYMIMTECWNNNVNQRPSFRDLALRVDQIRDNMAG

[17] = target: T17, KIT(L576P) (Homo sapiens, UniProt P10721, L576P); test: KinomeScan; type: binding; details: 1uM
T17 construct: purchased DiscoveRx KINOMEscan

[18] = target: T18, KIT(V559D,V654A) (Homo sapiens, UniProt P10721, V559D/V654A); test: KinomeScan; type: binding; details: 1uM
T18 construct: purchased DiscoveRx KINOMEscan

[19] = target: T19, LATS1 (Homo sapiens, UniProt O95835); test: KinomeScan; type: binding; details: 1uM
T19 construct: purchased DiscoveRx KINOMEscan

[20] = target: T20, LRRK2 (Homo sapiens, UniProt Q5S007); test: KinomeScan; type: binding; details: 1uM
T20 construct: purchased DiscoveRx KINOMEscan

[21] = target: T21, MYLK2 (Homo sapiens, UniProt Q9H1R3); test: KinomeScan; type: binding; details: 1uM
T21 construct: purchased DiscoveRx KINOMEscan

[22] = target: T22, PAK3 (Homo sapiens, UniProt O75914); test: KinomeScan; type: binding; details: 1uM
T22 construct: purchased DiscoveRx KINOMEscan

[23] = target: T23, PAK6 (Homo sapiens, UniProt Q9NQU5); test: KinomeScan; type: binding; details: 1uM
T23 construct: purchased DiscoveRx KINOMEscan

[24] = target: T24, PFCDPK1(P.falciparum) (Plasmodium falciparum, UniProt P62344); test: KinomeScan; type: binding; details: 1uM
T24 construct: purchased DiscoveRx KINOMEscan

[25] = target: T25, PKN2 (Homo sapiens, UniProt Q16513); test: KinomeScan; type: binding; details: 1uM
T25 construct: purchased DiscoveRx KINOMEscan

[26] = target: T26, QSK (Homo sapiens, UniProt Q9Y2K2); test: KinomeScan; type: binding; details: 1uM
T26 construct: purchased DiscoveRx KINOMEscan

[27] = target: RPS6KA4(Kin.Dom.2-C-terminal) (Homo sapiens, UniProt O75676); test: KinomeScan; type: binding; details: 1uM
[28] = target: T27, RSK3(Kin.Dom.2-C-terminal) (Homo sapiens, UniProt Q15349); test: KinomeScan; type: binding; details: 1uM
T27 construct: RSK3(Kin.Dom.2-C-terminal); purchased DiscoveRx KINOMEscan

[29] = target: T28, RSK4(Kin.Dom.2-C-terminal) (Homo sapiens, UniProt Q9UK32); test: KinomeScan; type: binding; details: 1uM
T28 construct: RSK4(Kin.Dom.2-C-terminal); purchased DiscoveRx KINOMEscan

[30] = target: T29, SRPK3 (Homo sapiens, UniProt Q9UPE1); test: KinomeScan; type: binding; details: 1uM
T29 construct: purchased DiscoveRx KINOMEscan
T29 sequence (Q9UPE1 whole entry): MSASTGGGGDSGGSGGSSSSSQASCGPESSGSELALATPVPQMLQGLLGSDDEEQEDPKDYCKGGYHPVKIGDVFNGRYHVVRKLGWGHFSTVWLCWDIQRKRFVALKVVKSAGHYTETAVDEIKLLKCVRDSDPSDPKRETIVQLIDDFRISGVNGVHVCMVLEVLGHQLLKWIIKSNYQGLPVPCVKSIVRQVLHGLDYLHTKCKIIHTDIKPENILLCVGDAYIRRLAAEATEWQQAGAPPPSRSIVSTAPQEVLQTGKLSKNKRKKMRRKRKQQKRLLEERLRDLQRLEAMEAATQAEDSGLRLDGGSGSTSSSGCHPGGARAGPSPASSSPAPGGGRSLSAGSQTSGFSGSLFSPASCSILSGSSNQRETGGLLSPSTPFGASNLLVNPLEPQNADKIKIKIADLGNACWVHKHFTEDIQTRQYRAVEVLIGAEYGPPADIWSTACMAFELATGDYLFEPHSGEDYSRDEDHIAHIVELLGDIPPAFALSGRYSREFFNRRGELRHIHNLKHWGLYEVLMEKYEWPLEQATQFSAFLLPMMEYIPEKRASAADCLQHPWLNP

[31] = target: T30, TRKA (Homo sapiens, UniProt P04629); test: KinomeScan; type: binding; details: 1uM
T30 construct: purchased DiscoveRx KINOMEscan

[32] = target: T31, WEE2 (Homo sapiens, UniProt P0C1S8); test: KinomeScan; type: binding; details: 1uM
T31 construct: purchased DiscoveRx KINOMEscan
T31 sequence (P0C1S8 whole entry): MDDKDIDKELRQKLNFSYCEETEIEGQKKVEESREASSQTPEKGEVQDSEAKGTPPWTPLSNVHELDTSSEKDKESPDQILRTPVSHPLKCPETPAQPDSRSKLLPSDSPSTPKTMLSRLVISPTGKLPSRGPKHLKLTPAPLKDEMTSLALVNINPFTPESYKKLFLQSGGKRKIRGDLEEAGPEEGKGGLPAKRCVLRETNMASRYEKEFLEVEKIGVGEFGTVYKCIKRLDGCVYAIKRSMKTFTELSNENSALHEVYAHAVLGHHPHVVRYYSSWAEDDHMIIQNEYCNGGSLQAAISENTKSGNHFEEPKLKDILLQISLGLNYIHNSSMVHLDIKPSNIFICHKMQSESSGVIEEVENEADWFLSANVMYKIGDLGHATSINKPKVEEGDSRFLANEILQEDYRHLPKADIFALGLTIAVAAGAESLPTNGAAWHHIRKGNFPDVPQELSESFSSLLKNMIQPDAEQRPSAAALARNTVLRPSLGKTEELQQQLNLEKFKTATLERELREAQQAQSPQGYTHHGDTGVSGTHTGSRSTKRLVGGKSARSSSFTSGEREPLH

[33] = target: T32, YSK4 (Homo sapiens, UniProt Q56UN5); test: KinomeScan; type: binding; details: 1uM
T32 construct: purchased DiscoveRx KINOMEscan

[34] = tested on: S6K phosphorylation; test: Signaling pathway effect examination (western blotting); type: cell-based, human; design: dose or concentration left out as unconfirmed; details: MOLM13, HT, Namalwa, MEC-1, MEC-2 cells
Method: The cells were collected and lysed, and cell lysates were analyzed by western blotting.

[35] = tested on: HT (B-NHL); test: Colony formation assay; type: cell-based; details: Homo sapiens, HT15, 360 h, 15 days, read-out: anti-colony formation EC50
Method: (§1) In brief, 1 mL of 3 % agarose combined with 1 mL HT, REC-1, MEC-1 and MOLM-13 growth media was used as the bottom agar in a 6-well plate. […] Cells were maintained in a humidified 5% CO2 incubator at 37°C for 15 days. On the 15th day, the numbers of colonies in each well were counted and each measurement was performed in triplicate.

[36] = tested on: MEC-1 (CLL); test: Colony formation assay; type: cell-based; details: Homo sapiens, MEC1, 360 h; MEC-1, 15 days; read-out: anti-colony formation EC50
Method: as §1

[37] = tested on: MOLM13 (AML); test: Colony formation assay; type: cell-based; details: Homo sapiens, MOLM-13, 360 h; MOLM13, 15 days; read-out: anti-colony formation EC50
Method: as §1

T1 sequence (P42684 whole entry): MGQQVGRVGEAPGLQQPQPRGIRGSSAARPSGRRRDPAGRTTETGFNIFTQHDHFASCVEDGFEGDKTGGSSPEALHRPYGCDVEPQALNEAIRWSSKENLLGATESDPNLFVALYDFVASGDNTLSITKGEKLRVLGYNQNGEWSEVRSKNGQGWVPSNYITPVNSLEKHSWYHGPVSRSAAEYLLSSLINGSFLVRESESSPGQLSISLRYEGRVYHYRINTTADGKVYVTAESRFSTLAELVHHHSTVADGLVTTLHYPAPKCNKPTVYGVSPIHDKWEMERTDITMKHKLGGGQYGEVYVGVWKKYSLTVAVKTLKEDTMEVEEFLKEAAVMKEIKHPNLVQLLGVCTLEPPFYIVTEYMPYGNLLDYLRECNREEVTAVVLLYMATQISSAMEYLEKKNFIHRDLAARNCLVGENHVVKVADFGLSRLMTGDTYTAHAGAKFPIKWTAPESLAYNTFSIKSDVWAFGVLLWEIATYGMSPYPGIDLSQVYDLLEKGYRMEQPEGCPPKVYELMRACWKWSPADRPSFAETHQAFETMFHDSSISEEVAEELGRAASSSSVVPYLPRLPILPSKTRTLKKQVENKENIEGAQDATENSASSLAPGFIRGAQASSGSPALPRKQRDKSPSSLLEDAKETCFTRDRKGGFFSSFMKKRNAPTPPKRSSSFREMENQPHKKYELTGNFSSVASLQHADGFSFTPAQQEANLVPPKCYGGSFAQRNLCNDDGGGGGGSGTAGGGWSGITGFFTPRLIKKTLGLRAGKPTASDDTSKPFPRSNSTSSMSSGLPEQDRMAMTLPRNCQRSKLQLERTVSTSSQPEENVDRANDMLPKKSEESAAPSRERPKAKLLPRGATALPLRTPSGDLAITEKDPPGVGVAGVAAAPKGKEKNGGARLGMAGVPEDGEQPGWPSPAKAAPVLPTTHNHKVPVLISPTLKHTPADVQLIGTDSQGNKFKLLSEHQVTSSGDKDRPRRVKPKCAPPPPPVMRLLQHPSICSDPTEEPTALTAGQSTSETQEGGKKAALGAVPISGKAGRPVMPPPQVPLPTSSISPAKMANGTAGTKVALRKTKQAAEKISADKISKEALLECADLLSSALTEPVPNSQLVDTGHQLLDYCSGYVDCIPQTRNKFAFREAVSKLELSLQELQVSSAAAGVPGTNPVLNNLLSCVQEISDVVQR

Cc1nc(NC(=O)[C@@H](N)C(C)C)sc1-c1cnc(Cl)c(NS(=O)(=O)c2ccccc2)c1 [PI3KD-IN-015]
KinomeScan ABL2 [1]: 99 | KinomeScan AMPK-alpha1 [2]: 100 | KinomeScan AURKA [3]: 93 | KinomeScan CDC2L2 [4]: 100 | KinomeScan CDK3 [5]: 100 | KinomeScan CDKL3 [6]: 100 | KinomeScan DRAK2 [7]: 70 | KinomeScan EGFR(L858R) [8]: 100 | KinomeScan EPHB2 [9]: 100 | KinomeScan EPHB3 [10]: 100 | KinomeScan FGFR2 [11]: 100 | KinomeScan GRK1 [12]: 99 | KinomeScan GSK3B [13]: 97 | KinomeScan ICK [14]: 95 | KinomeScan JAK1(JH1domain-catalytic) [15]: 92 | KinomeScan JAK2(JH1domain-catalytic) [16]: 96 | KinomeScan KIT(L576P) [17]: 83 | KinomeScan KIT(V559D,V654A) [18]: 97 | KinomeScan LATS1 [19]: 98 | KinomeScan LRRK2 [20]: 100 | KinomeScan MYLK2 [21]: 84 | KinomeScan PAK3 [22]: 92 | KinomeScan PAK6 [23]: 91 | KinomeScan PFCDPK1(P.falciparum) [24]: 100 | KinomeScan PKN2 [25]: 100 | KinomeScan QSK [26]: 94 | KinomeScan RPS6KA4(Kin.Dom.2-C-terminal) [27]: 83 | KinomeScan RSK3(Kin.Dom.2-C-terminal) [28]: 99 | KinomeScan RSK4(Kin.Dom.2-C-terminal) [29]: 99 | KinomeScan SRPK3 [30]: 100 | KinomeScan TRKA [31]: 96 | KinomeScan WEE2 [32]: 100 | KinomeScan YSK4 [33]: 100 | S6K phosphorylation [34]: significantly decreased | EC50 [35]: 0.374 µM | EC50 [36]: 0.765 µM | EC50 [37]: 0.215 µM
